What was measured:
Assay type in all cases: ADME, organism-based
[1] = Biodistribution in rat liver at 15 mins; conditions: read-out: Drug uptake
[2] = Biodistribution in rat liver at 60 mins; conditions: read-out: Drug uptake
[3] = test system: Liver; assay: Biodistribution in rat liver at 15 uci, iv measured at 60 mins; conditions: in vivo, 1 h
[4] = test system: Liver; assay: Biodistribution in rat liver at 15 uci, iv measured at 15 mins; conditions: in vivo, 0.25 h

| Compound | tissue uptake at 0.25 h [1] [%ID/g] | tissue uptake at 1 h [2] [%ID/g] | Drug uptake [3] [% ID/g] | Drug uptake [4] [% ID/g] |
| --- | --- | --- | --- | --- |
| CC(C)(C)n1ncc(OCc2ccc(CCCC[18F])cc2)c(Cl)c1=O | 1.6 | 1.3 | – | – |
| CC(C)(C)n1ncc(OCc2ccc(COCCF)cc2)c(Cl)c1=O [FLURPIRIDAZ] | – | – | 0.9 | 1.4 |
